Laboratory results from patent US20030049204A1, “Individualization of therapy with gastroesophageal reflux disease agents” (McGill University, priority 2001, published 2003).
Like-named read-outs stand apart in the source and are kept apart here. Marks after values point to notes of the source that are not given here.

Experiments:
AAMU-Ab = assay: Competitive antigen ELISA, cross-reactivity of AAMU-Ab; assay type: binding, rabbit; conditions: 0 = absence of inhibition or inhibition no higher than 40% at highest concentration tested (5 × 10^−3 M)
Protocol: (§1) Four mature females New Zealand white rabbits (Charles River Canada, St-Constant, Que., Canada) are used for antibody production. The protocol employed in this study was approved by the McGill University Animal Care Committee in accordance with the guidelines from the Canadian Council on Animal Care. Antibodies of the present invention may be monoclonal or polyclonal antibodies.
(§2) A 0.5 mL aliquot of the emulsion ([…] of antigen) is injected per rabbit intramuscularly or subcutaneously. Rabbits are subsequently boosted at intervals of three weeks with […] of antigen emulsified in incomplete Freund's adjuvant. […] Antisera are stored at 4° C. in the presence of 0.01% sodium azide.
(§3) Buffers and water without additives are filtered through millipore filters and kept for 1 week. BSA, antibodies, Tween™ 20 and horse radish peroxidase conjugates are added to these buffers and water just prior to use. Urine samples are usually collected 4 hours after drinking a cup of coffee (instant or brewed with approximately 100 mg of caffeine per cup) and stored at −80° C. The urine samples are diluted 10 times with sodium phosphate buffer (620 mosm, pH 7.50) and are subsequently diluted with water to give concentrations of AAMU and 1X no higher than 3×10^−6 M in the ELISA. All the pipettings are done with an eight-channel pipette, except those of the antibody and sample solutions. Starting with the last well, 100 μL of a carbonate buffer (100 mM, pH 9.6) containing 2.5 μg mL-^1 antibodies are added to each well. After 90 min. at room temperature, the wells are washed three times with 100 mL of TPB: isotonic sodium phosphate buffer (310 mosm, pH 7.50) containing 0.05% Tween™ 20.
(§4) After the initial wash, unoccupied sites are blocked by incubation for 90 min. at room temperature with 100 μL TBP containing 3% BSA. The wells are washed four times with 100 μL TPB. […] The microplate is gently shaken with an orbital shaker at room temperature for 3-4 hours. The wells are washed three times with 100 μL TPB containing 1% BSA and three times with water containing 0.05% Tween™ 20. To the washed plate is added 150 μL of a substrate buffer composed of citric acid (25 mM) and sodium phosphate dibasic buffer (50 mM, pH 5.0) containing 0.06% hydrogen peroxide and 0.04% o-phenylenediamine hydrochloride.
as §3, with “were” for “are”, “They were” for “The urine samples are”, “mL^−1” for “mL-^1”, “was pipetted.” for “are added to each well.”, “μL” for “mL”
(§5) After the initial wash, unoccupied sites were blocked by incubation for 90 min. at room temperature with 100 μL TBP containing 3% BSA. The wells were washed four times with 100 μL TPB. […] The microplate was gently shaken with an orbital shaker at room temperature for 3-4 hours. The wells were washed three times with 100 μL with TPB containing 1% BSA and three times with water containing 0.05% Tween™ 20. To the washed plate was added 150 μL of a substrate buffer composed of citric acid (25 mM) and sodium phosphate dibasic buffer (50 mM, pH 5.0) containing 0.06% hydrogen peroxide and 0.04% o-phenylenediamine hydrochloride.

1X-Ab = assay: Competitive antigen ELISA, cross-reactivity of 1X-Ab; assay type: binding, rabbit; conditions: 0 = absence of inhibition or inhibition no higher than 40% at highest concentration tested (5 × 10^−3 M)
Protocol: as §1, §2, §3, §4
as §3, with “were” for “are”, “They were” for “The urine samples are”, “mL^−1” for “mL-^1”, “was pipetted.” for “are added to each well.”, “μL” for “mL”
as §5

[1] = cited from earlier work
[2] = cited from earlier work; remark: listed apart in the source
[3] = test system: plasma proteins, mainly albumin; conditions: cited from earlier work
[4] = especially less severe degrees of esophagitis; cited from earlier work
[5] = target: serotonin-4 (5-HT4) receptor (Homo sapiens, UniProt Q13639); conditions: in vitro; cited from earlier work
Chain of serotonin-4 (5-HT4) receptor (Q13639 whole entry, species assumed): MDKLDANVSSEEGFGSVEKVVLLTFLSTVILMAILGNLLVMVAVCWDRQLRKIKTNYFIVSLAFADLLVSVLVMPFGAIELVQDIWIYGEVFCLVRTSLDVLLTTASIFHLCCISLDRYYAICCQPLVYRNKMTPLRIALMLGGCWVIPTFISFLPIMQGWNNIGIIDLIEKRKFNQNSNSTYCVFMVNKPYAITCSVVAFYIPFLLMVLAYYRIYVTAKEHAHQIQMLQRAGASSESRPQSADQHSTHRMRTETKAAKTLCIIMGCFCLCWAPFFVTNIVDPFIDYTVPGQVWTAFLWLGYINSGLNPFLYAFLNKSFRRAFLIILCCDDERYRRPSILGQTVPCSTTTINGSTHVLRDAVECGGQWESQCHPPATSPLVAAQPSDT

[6] = target: T1, rapid component of the delayed rectifying K^+ current (lkr) (Oryctolagus cuniculus, UniProt Q8WNY2); conditions: in vivo anesthetized guinea pig and rabbit; in vitro isolated rabbit preparations; cited from earlier work
T1 construct: in vitro isolated rabbit Purkinje fibers and ventricular papillary muscle and isolated rabbit ventricular myocyte models; from tissue; host or cells: rabbit Purkinje fibers, ventricular papillary muscle and ventricular myocytes; also anesthetized guinea pig and rabbit in vivo
T1 sequence (Q8WNY2 1-1161): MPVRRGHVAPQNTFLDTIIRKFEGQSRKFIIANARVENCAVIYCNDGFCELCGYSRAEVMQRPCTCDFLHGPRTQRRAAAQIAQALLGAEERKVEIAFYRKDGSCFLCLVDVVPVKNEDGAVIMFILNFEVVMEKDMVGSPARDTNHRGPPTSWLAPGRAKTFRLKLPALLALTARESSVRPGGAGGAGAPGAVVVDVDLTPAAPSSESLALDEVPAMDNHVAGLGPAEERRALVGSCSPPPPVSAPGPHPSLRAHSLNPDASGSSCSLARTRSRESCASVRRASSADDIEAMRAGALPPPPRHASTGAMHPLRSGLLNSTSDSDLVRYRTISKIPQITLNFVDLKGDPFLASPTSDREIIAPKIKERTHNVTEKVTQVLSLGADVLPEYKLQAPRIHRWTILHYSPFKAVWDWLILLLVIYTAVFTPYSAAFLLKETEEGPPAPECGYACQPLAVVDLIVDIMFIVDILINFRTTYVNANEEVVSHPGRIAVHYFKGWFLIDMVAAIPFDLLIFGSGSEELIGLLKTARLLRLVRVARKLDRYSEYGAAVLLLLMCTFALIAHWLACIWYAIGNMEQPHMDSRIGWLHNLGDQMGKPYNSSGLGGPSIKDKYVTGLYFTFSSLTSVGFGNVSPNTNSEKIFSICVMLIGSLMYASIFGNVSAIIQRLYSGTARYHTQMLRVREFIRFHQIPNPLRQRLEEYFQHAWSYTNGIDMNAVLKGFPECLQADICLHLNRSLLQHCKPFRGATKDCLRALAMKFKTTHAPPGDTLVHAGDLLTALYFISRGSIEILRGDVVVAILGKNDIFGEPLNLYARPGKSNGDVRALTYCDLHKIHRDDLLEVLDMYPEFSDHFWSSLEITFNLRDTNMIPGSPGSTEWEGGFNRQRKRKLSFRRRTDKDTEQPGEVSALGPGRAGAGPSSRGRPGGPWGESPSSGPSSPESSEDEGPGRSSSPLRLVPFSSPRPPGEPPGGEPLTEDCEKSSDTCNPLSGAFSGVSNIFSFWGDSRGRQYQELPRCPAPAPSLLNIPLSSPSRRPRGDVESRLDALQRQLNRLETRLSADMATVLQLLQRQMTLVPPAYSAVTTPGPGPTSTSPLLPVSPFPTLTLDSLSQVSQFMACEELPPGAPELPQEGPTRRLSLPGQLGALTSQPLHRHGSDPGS

[7] = in vivo; cited from earlier work

| Structure (SMILES) | % Cross-Reaction AAMU-Ab (AAMU-Ab) | % Cross-Reaction 1X-Ab (1X-Ab) [%] | other results |
| --- | --- | --- | --- |
| CC(=O)Nc1c(N)n(C)c(=O)[nH]c1=O [5-Acetamino-6-amino-1-methyluracil] | 100% | 0 | – |
| Cn1c(=O)c2c(ncn2C)n(C)c1=O [1,3,7-Trimethyl Xanthine (Caffeine), 1,3,7-Trimethyl Xanthine] | 0% | 0 | – |
| O=c1[nH]cnc2nc[nH]c12 [Hypoxanthine] | 0% | 0 | – |
| Cn1c(=O)[nH]c2[nH]c(=O)[nH]c2c1=O [1-Methyluric acid] | 0% | 11 | – |
| Cn1c(=O)[nH]c(=O)c2[nH]cnc21 [3-Methyl Xanthine] | 0% | 0 | – |
| Cn1c(=O)c2[nH]cnc2n(C)c1=O [1,3-Dimethyl Xanthine (Theophylline), 1,3-Dimethyl Xanthine] | 0% | 0.2 | – |
| Cn1cnc2c1c(=O)[nH]c(=O)n2C [3,7-Dimethyl Xanthine (Theobromine), 3,7-Dimethyl Xanthine] | 0% | 0 | – |
| Cn1c(=O)[nH]c2[nH]c(=O)n(C)c2c1=O [1,7-Dimethyluric acid] | 0% | 0 | – |
| Cc1nc2[nH]c(=O)[nH]c(=O)c2[nH]1 [8-Methyl Xanthine] | 0% | 0 | – |
| Cn1c(=O)[nH]c2nc[nH]c2c1=O [1-Methyl Xanthine (1X), 1-Methyl Xanthine] | 0% | 100 | – |
| Cn1c(=O)[nH]c2ncn(C)c2c1=O [1,7-Dimethyl Xanthine (Paraxanthine), 1,7-Dimethyl Xanthine] | 0% | 0.5 | – |
| CC(=O)Nc1c(N)[nH]c(=O)[nH]c1=O [5-Acetamino-6-amino-uracil] | 0.6% | 0 | – |
| Nc1nc2nc[nH]c2c(=O)[nH]1 [Guanine] | 0% | 0 | – |
| O=c1[nH]c(=O)c2[nH]cnc2[nH]1 [Xanthine] | 0^a % | 0 | – |
| CC(=O)Nc1c(N)n(C)c(=O)n(C)c1=O [5-Acetamino-6-amino-1,3-dimethyluracil] | 0% | 0 | – |
| Cn1cnc2[nH]c(=O)[nH]c(=O)c21 [7-Methyl Xanthine] | 0% | 0 | – |
| Nc1ccc(S(=O)(=O)c2ccc(N)cc2)cc1 [dapsone] | – | – | adverse reactions ([1]; fast acetylators): 17%; adverse reactions ([1]; slow acetylators): 46% |
| COc1cc(N)c(Cl)cc1C(=O)NC1CCN(CCCOc2ccc(F)cc2)CC1OC (centres unmarked) [Cisapride] | – | – | half-life ([2]; following intravenous (IV) administration): up to 20 hours; absolute bioavailability ([2]; in vivo): 35-40%; plasma clearance ([2]; in vivo): about 100 ml/min; volume of distribution ([2]; in vivo): about 180 L; unmetabolized drug accounted for in urinary and fecal recovery ([2]; oral administration): less than 10%; binding to plasma proteins [3]: 97.5-98%; long-term control of GERD, individuals [4]: up to 50%; activity at serotonin-4 (5-HT4) receptor [5]: receptor agonist; effect on cardiac repolarization [6]: prolonged cardiac repolarization without slowing conduction; deaths among reports of heart rhythm abnormalities [7]: 80; diarrhea, individuals affected [7]: about 10%; reports of heart rhythm abnormalities [7]: at least 341 |
| O=c1[nH]c(=O)c2[nH]c(=O)[nH]c2[nH]1 [Uric acid] | 0% | 0 | – |
| O=c1cc[nH]c(=O)[nH]1 [Uracil] | 0% | 0 | – |
